Data reported in US20110144028A1, “MODULATING CELLULAR ELECTROPHYSIOLOGY” (priority 2009, published 2011).

Columns and labels:
[1] = system: cardiac fibroblasts transfected with AdV-Kv1.3-GFP; assay: Cell viability and apoptosis with Hoechst nuclei stain in Kv1.3 transfected cardiac fibroblasts; type: cell-based, rat; conditions: for rescue of cells from Kv1.3 induced apoptosis: Kv1.3 transfected fibroblasts, n=3 for each titer, three days in culture
Text: (§1) Cells: Primary neonatal cardiac cells were obtained from ventricles of 2-3-day-old rat pups. The ventricles were fine minced, dissociated in Ca^2+-free Hank's balanced salt solution (HBSS) supplemented with 0.1%, trypsin and 0.006% pancreatin, and dispersed by triturating.
(§2) Separation and culture of cardiac myocytes and fibroblasts: The solution of dispersed cells was supplemented with 10% neonatal calf serum to stop enzymatic activity, centrifuged, resuspended in culture medium, pre-plated in large culture flasks, and incubated for two hours to isolate the fibroblast enriched fraction. Fibroblasts were further purified by media exchange within 1 hour after each passage. The myocytes remaining in suspension were collected and plated at 1.5 10^5 cells/cm^2 and grown for five to seven days before experimentation.
(§3) Transfection: Subconfluent myocyte and fibroblast cultures were transfected with AdV-Kv1.3-GFP or AdV-GFP at 10^6-10^8 PFU/ml. After transfection the cells were cultured in 0-5% serum media with 0, 1, 10 or 100 nM Charybdotoxin (CTx), which is a specific K^+ channel blocker. After three days in culture, the cells were visually monitored and assayed.
Cell Viability and apoptosis: Cells were assayed for viability and apoptosis with Hoechst nuclei stain.

[2] = system: cardiac fibroblasts transfected with AdV-Kv1.3-GFP; assay: Phase contrast microscopy of cellular morphology of Kv1.3 expressing cardiac fibroblasts; type: cell-based, rat; conditions: cells expressing Kv1.3 after 10^7 PFU/ml AdV-Kv1.3-GFP; phase contrast microscopy (FIG. 8B)
Text: as §1, §2, §3

Charybdotoxin
rescue of cells from Kv1.3 induced apoptosis ([1]; Charybdotoxin alone (FIG. 7A)): partially rescued the cells | rescue of cells from Kv1.3 induced apoptosis ([1]; cTx and 5% serum (FIG. 7B)): partially rescued the cells | cardiac fibroblast cell viability ([1]; cells expressing Kv1.3, addition of Charybdotoxin (FIG. 8)): rescued | cellular morphology of the fibroblasts [2]: maintained normal cellular morphology
